{"source": "the supplement of paper PMC10307832", "assay_in_all_cases": "relative viability (nuclei count vs DMSO), 5 days (fraction); higher = more cells survive", "key": {"Venetoclax + Vorinostat": {"compound": "CC1(C)CCC(CN2CCN(c3ccc(C(=O)NS(=O)(=O)c4ccc(NCC5CCOCC5)c([N+](=O)[O-])c4)c(Oc4cnc5[nH]ccc5c4)c3)CC2)=C(c2ccc(Cl)cc2)C1 [Venetoclax] + O=C(CCCCCCC(=O)Nc1ccccc1)NO [Vorinostat] (partner 1 µM)", "summary_of_the_method": "(§1)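 For relative viability, nuclei counts in treated wells were divided by those in vehicle wells. Lung cancer cell lines had been pin-tool dosed in 1536-well plates the day after seeding and cultured for 5 days, then fixed and stained in one step (final 0.05% Triton X-100, 1% formaldehyde, 1 ug/ml Hoechst) and imaged at 4×. Doses were one drug alone or a fixed anchor-drug dose plus five library-drug doses (not always all listed) in √10 steps, and values are duplicate-plate medians.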"}, "Venetoclax + Pemetrexed": {"compound": "CC1(C)CCC(CN2CCN(c3ccc(C(=O)NS(=O)(=O)c4ccc(NCC5CCOCC5)c([N+](=O)[O-])c4)c(Oc4cnc5[nH]ccc5c4)c3)CC2)=C(c2ccc(Cl)cc2)C1 [Venetoclax] + Nc1nc2[nH]cc(CCc3ccc(C(=O)N[C@@H](CCC(=O)O)C(=O)O)cc3)c2c(=O)[nH]1 [Pemetrexed] (partner 0.2 µM)", "summary_of_the_method": "as §1"}, "Venetoclax + Lapatinib": {"compound": "CC1(C)CCC(CN2CCN(c3ccc(C(=O)NS(=O)(=O)c4ccc(NCC5CCOCC5)c([N+](=O)[O-])c4)c(Oc4cnc5[nH]ccc5c4)c3)CC2)=C(c2ccc(Cl)cc2)C1 [Venetoclax] + CS(=O)(=O)CCNCc1ccc(-c2ccc3ncnc(Nc4ccc(OCc5cccc(F)c5)c(Cl)c4)c3c2)o1 [Lapatinib] (partner 2 µM)", "summary_of_the_method": "as §1"}, "Venetoclax + OSI-027": {"compound": "CC1(C)CCC(CN2CCN(c3ccc(C(=O)NS(=O)(=O)c4ccc(NCC5CCOCC5)c([N+](=O)[O-])c4)c(Oc4cnc5[nH]ccc5c4)c3)CC2)=C(c2ccc(Cl)cc2)C1 [Venetoclax] + COc1cccc2cc(-c3nc([C@H]4CC[C@H](C(=O)O)CC4)n4ncnc(N)c34)[nH]c12 [OSI-027] (partner 0.5 µM)", "summary_of_the_method": "as §1"}}}
{"cell line": "UMC-11", "values": [{"measurement": "relative viability", "setting": "Venetoclax + Vorinostat; first compound 0.01 µM", "value": 0.329}, {"measurement": "relative viability", "setting": "Venetoclax + Vorinostat; first compound 0.03162 µM", "value": 0.29}, {"measurement": "relative viability", "setting": "Venetoclax + Vorinostat; first compound 0.1 µM", "value": 0.274}, {"measurement": "relative viability", "setting": "Venetoclax + Vorinostat; first compound 0.3162 µM", "value": 0.23}, {"measurement": "relative viability", "setting": "Venetoclax + Vorinostat; first compound 1 µM", "value": 0.261}, {"measurement": "relative viability", "setting": "Venetoclax + Pemetrexed; first compound 0.01 µM", "value": 0.782}, {"measurement": "relative viability", "setting": "Venetoclax + Pemetrexed; first compound 0.03162 µM", "value": 0.666}, {"measurement": "relative viability", "setting": "Venetoclax + Pemetrexed; first compound 0.1 µM", "value": 0.731}, {"measurement": "relative viability", "setting": "Venetoclax + Pemetrexed; first compound 0.3162 µM", "value": 0.752}, {"measurement": "relative viability", "setting": "Venetoclax + Pemetrexed; first compound 1 µM", "value": 0.736}, {"measurement": "relative viability", "setting": "Venetoclax + Lapatinib; first compound 0.01 µM", "value": 0.828}, {"measurement": "relative viability", "setting": "Venetoclax + Lapatinib; first compound 0.03162 µM", "value": 0.942}, {"measurement": "relative viability", "setting": "Venetoclax + Lapatinib; first compound 0.1 µM", "value": 0.712}, {"measurement": "relative viability", "setting": "Venetoclax + Lapatinib; first compound 0.3162 µM", "value": 0.928}, {"measurement": "relative viability", "setting": "Venetoclax + Lapatinib; first compound 1 µM", "value": 0.912}, {"measurement": "relative viability", "setting": "Venetoclax + OSI-027; first compound 0.01 µM", "value": 0.439}, {"measurement": "relative viability", "setting": "Venetoclax + OSI-027; first compound 0.03162 µM", "value": 0.46}, {"measurement": "relative viability", "setting": "Venetoclax + OSI-027; first compound 0.1 µM", "value": 0.465}, {"measurement": "relative viability", "setting": "Venetoclax + OSI-027; first compound 0.3162 µM", "value": 0.461}, {"measurement": "relative viability", "setting": "Venetoclax + OSI-027; first compound 1 µM", "value": 0.428}]}
